Measurements: patent US20250128062A1 (priority 2023, published 2025)
“Also recorded” adds a separate entry of the source.

Columns and labels:
α1 unit of Na,K-ATPase = conditions: read-out: Kd to block the α1 unit of Na,K-ATPase; cited from earlier work
[1] = tested on: afferent transmission in C-fiber and Aδ-fiber afferents (DRG); experiment: ex vivo single-fiber recordings of afferent transmission block by DRG stimulation with local Na,K-ATPase inhibition (3-compartment tissue chamber)
Excerpt: FIG. 9A is a plot of ex vivo single-fiber recordings from afferent axons in a 3-compartment tissue chamber that isolates the DRG from the spinal nerve and dorsal root allowing focused pharmacological application.
Action potentials were evoked by stimulating the peripheral end of the spinal nerve, which is transmitted down the peripheral and central axons to be recorded by extracellular single-fiber recordings from split dorsal root filaments.

[2] = patients; cited from earlier work
[3] = in vivo; cited from earlier work

C[C@@H]1O[C@@H](O[C@H]2C[C@@H](O)[C@]3(CO)[C@H]4[C@H](O)C[C@]5(C)[C@@H](C6=CC(=O)OC6)CC[C@]5(O)[C@@H]4CC[C@]3(O)C2)[C@H](O)[C@H](O)[C@H]1O [ouabain]
Kd (α1 unit of Na,K-ATPase): 32 to 170 µM
transmission block of C-fiber afferent by 10 Hz DRG stimulation ([1]; 10 Hz DRG stimulation combined with ouabain 10 μg/mL (17.1 μM), OBF for C-fibers ~50 Hz without drug): effectively blocks afferent transmission; also recorded: transmission block is achieved; also recorded: selectively block C-fiber afferents
transmission block of Aδ-fiber afferent by 10 Hz DRG stimulation ([1]; 10 Hz DRG stimulation combined with ouabain 17.1 μM): unblocked; also recorded: unaffected
transmission block by DRG stimulation as measured by the time to resume transmission following terminating the DRG stimulation ([1]; ouabain 10 μg/mL or 17.1 μM applied locally to the DRG in the middle compartment): significantly prolonged
separation of optimal blocking frequency (OBF) between C-fibers and thinly myelinated Aδ-fibers ([1]; ouabain applied to the DRG): greater separation

C[C@H]1O[C@@H](O[C@H]2[C@@H](O)C[C@H](O[C@H]3[C@@H](O)C[C@H](O[C@H]4CC[C@@]5(C)[C@H](CC[C@@H]6[C@@H]5C[C@@H](O)[C@]5(C)[C@@H](C7=CC(=O)OC7)CC[C@]65O)C4)O[C@@H]3C)O[C@@H]2C)C[C@H](O)[C@@H]1O [digoxin]
serum level considered safe with no apparent side effects [2]: < 1.0 ng/mL

C[C@H]1O[C@@H](O[C@H]2[C@@H](O)C[C@H](O[C@H]3[C@@H](O)C[C@H](O[C@H]4CC[C@@]5(C)[C@H](CC[C@@H]6[C@@H]5CC[C@]5(C)[C@@H](C7=CC(=O)OC7)CC[C@]65O)C4)O[C@@H]3C)O[C@@H]2C)C[C@H](O)[C@@H]1O [digitoxin]
route of elimination from the body [3]: eliminated via the liver
